Molecular target: T1, Human KLK1 (Homo sapiens, UniProt P06870)
T1 construct: purchased Callbiochem (Calbiochem)
Experiment: Determination of the IC50 for KLK1 (fluorogenic substrate H-DVal-Leu-Arg-AFC)
Format: biochemical
Conditions: 37° C.
Method: Determination of the IC50 for KLK1
KLK1 inhibitory activity in vitro was determined using standard published methods (see e.g. Johansen et al., Int. J. Tiss. Reac. 1986, 8, 185; Shori et al., Biochem. Pharmacol., 1992, 43, 1209; Stürzebecher et al., Biol. Chem. Hoppe-Seyler, 1992, 373, 1025). Human KLK1 (Callbiochem) was incubated at 37° C. with the fluorogenic substrate H-DVal-Leu-Arg-AFC and various concentrations of the test compound. Residual enzyme activity (initial rate of reaction) was determined by measuring the change in optical absorbance at 410 nm and the IC50 value for the test compound was determined.

T1 sequence (P06870 25-262): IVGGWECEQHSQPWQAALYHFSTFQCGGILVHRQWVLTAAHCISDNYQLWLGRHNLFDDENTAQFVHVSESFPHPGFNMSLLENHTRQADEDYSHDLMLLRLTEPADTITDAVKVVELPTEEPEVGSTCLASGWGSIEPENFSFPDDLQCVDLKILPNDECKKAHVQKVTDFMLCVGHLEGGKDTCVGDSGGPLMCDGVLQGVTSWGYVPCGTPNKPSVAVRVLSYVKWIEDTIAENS

Compared with `CS(=O)(=O)N1CCC[C@@H]1C(=O)N[C@@H](Cc1ccc(Cl)c(Cl)c1)C(=O)NCc1ccc(N)nc1` [Example 210, (R)-1-Methanesulfonyl-pyrrolidine-2-carboxylic acid [(S)-1-[(6-amino-pyridin-3-ylmethyl)-carbamoyl]-2-(3,4-dichloro-phenyl)-ethyl]-amide], `CC(C)N1CCC[C@@H]1C(=O)N[C@@H](Cc1ccc(F)c(F)c1)C(=O)NCc1ccc(N)nc1` [Example 6, (R)-1-Isopropyl-pyrrolidine-2-carboxylic acid [(S)-1-[(6-amino-pyridin-3-ylmethyl)-carbamoyl]-2-(3,4-difluoro-phenyl)-ethyl]-amide] is 20-fold lower in IC50: 39 nM for the first, 2 nM for the second.

Compared with `Cc1cc(C)c(C(=O)N[C@@H](Cc2cccc(F)c2)C(=O)NCc2ccc(N)nc2)[nH]1` [Example 236, 3,5-Dimethyl-1H-pyrrole-2-carboxylic acid [(S)-1-[(6-amino-pyridin-3-ylmethyl)-carbamoyl]-2-(3-fluoro-phenyl)-ethyl]-amide], `Nc1ccc(CNC(=O)[C@H](CC2CCCC3CCCCC32)NC(=O)[C@H]2CCCN2)cn1` (stereo partly drawn) [Example 15, (R)-Pyrrolidine-2-carboxylic acid [(S)-1-[(6-amino-pyridin-3-ylmethyl)-carbamoyl]-2-(decahydro-naphthalen-1-yl)-ethyl]-amide] is 7.5-fold lower in IC50: 9 nM for the first, 1.2 nM for the second. The second is the more potent here.

Compared with `CN1CCCC[C@@H]1C(=O)N[C@@H](Cc1ccc(F)c(F)c1)C(=O)NCc1ccc(N)nc1` [Example 144, (R)-1-Methyl-piperidine-2-carboxylic acid [(S)-1-[(6-amino-pyridin-3-ylmethyl)-carbamoyl]-2-(3,4-difluoro-phenyl)-ethyl]-amide], `Cc1nc(N)ccc1CNC(=O)[C@@H](Cc1ccc(Cl)c(Cl)c1)NC(=O)[C@H]1CSCN1` [Example 191, (S)-Thiazolidine-4-carboxylic acid [(R)-1-[(6-amino-2-methyl-pyridin-3-ylmethyl)-carbamoyl]-2-(3,4-dichloro-phenyl)-ethyl]-amide] is 1.6-fold higher in IC50: 20.9 nM for the first, 33.3 nM for the second. The first is the more potent here.

Going from `Cc1cc[nH]c1C(=O)N[C@@H](Cc1ccc(Cl)cc1)C(=O)NCc1ccc(N)nc1` [Example 267, 3-Methyl-1H-pyrrole-2-carboxylic acid [(S)-1-[(6-amino-pyridin-3-ylmethyl)-carbamoyl]-2-(4-chloro-phenyl)-ethyl]-amide] to “(S)—N-{(R)-1-[(6-Amino-pyridin-3-ylmethyl)-carbamoyl]-2,2-dicyclohexyl-ethyl}-2-dimethylamino-propionamide [Example 434]”, the IC50 rises from 8.2 nM to 43.9 nM (5.4-fold).

`Nc1ccc(CNC(=O)[C@H](Cc2cccc(Cl)c2)NC(=O)c2cc3ccccc3[nH]2)cn1` [Example 313, 1H-Indole-2-carboxylic acid [(S)-1-[(6-amino-pyridin-3-ylmethyl)-carbamoyl]-2-(3-chloro-phenyl)-ethyl]-amide] and `Cc1cc(C)c(C(=O)N[C@@H](Cc2ccccc2)C(=O)NCc2ccc(N)nc2)[nH]1` [Example 237, 3,5-Dimethyl-1H-pyrrole-2-carboxylic acid {(S)-1-[(6-amino-pyridin-3-ylmethyl)-carbamoyl]-2-phenyl-ethyl}-amide] are within 1.5-fold of each other in IC50: 8.7 nM for the first, 10.9 nM for the second.

Going from `Cc1cc(C)c(C(=O)N[C@@H](Cc2ccc3ccccc3n2)C(=O)NCc2ccc(N)nc2)[nH]1` [Example 257, 3,5-Dimethyl-1H-pyrrole-2-carboxylic acid {(S)-1-[(6-amino-pyridin-3-ylmethyl)-carbamoyl]-2-quinolin-2-yl-ethyl}-amide] to `Nc1ccc(CNC(=O)[C@H](Cc2cccc3ccccc23)NC(=O)c2cc3cc(O)ccc3[nH]2)cn1` [Example 302, 5-Hydroxy-1H-indole-2-carboxylic acid {(S)-1-[(6-amino-pyridin-3-ylmethyl)-carbamoyl]-2-naphthalen-1-yl-ethyl}-amide], the IC50 falls from 12.1 nM to 7.2 nM (1.7-fold).

Compared with `Nc1ccc(CNC(=O)[C@H](Cc2ccc(Cl)c(Cl)c2)NC(=O)[C@H]2CCCCN2)cn1` [Example 63, (R)-Piperidine-2-carboxylic acid [(S)-1-[(6-amino-pyridin-3-ylmethyl)-carbamoyl]-2-(3,4-dichloro-phenyl)-ethyl]-amide], `CN1CCC[C@H]1C(=O)N[C@@H](C(=O)NCc1ccc(N)nc1)C(C1CCCCC1)C1CCCCC1` [Example 223, (S)-1-Methyl-pyrrolidine-2-carboxylic acid {(R)-1-[(6-amino-pyridin-3-ylmethyl)-carbamoyl]-2,2-dicyclohexyl-ethyl}-amide] is 26-fold higher in IC50: 0.66 nM for the first, 17.4 nM for the second. The first is the more potent here.

Compared with `CNC(C)(C)C(=O)N[C@@H](Cc1ccc(F)c(F)c1)C(=O)NCc1ccc(N)nc1` [Example 86, N-[(S)-1-[(6-Amino-pyridin-3-ylmethyl)-carbamoyl]-2-(3,4-difluoro-phenyl)-ethyl]-2-methyl-2-methylamino-propionamide], `CCC(C)[C@@H](NC)C(=O)N[C@@H](Cc1ccc(Cl)cc1)C(=O)NCc1ccc(N)nc1` (stereo partly drawn) [Example 46, (R)-3-Methyl-2-methylamino-pentanoic acid [(S)-1-[(6-amino-pyridin-3-ylmethyl)-carbamoyl]-2-(4-chloro-phenyl)-ethyl]-amide] is 13-fold lower in IC50: 15.5 nM for the first, 1.2 nM for the second. The second is the more potent here.

Going from `Cn1c(C(=O)N[C@@H](Cc2cccc3ccccc23)C(=O)NCc2ccc(N)nc2)cc2ccccc21` [Example 306, 1-Methyl-1H-indole-2-carboxylic acid {(S)-1-[(6-amino-pyridin-3-ylmethyl)-carbamoyl]-2-naphthalen-1-yl-ethyl}-amide] to `Cc1ccc(-c2ccc(C(=O)N[C@@H](Cc3cccc(Cl)c3)C(=O)NCc3ccc(N)nc3)[nH]2)cc1` [Example 297, 5-p-Tolyl-1H-pyrrole-2-carboxylic acid [(S)-1-[(6-amino-pyridin-3-ylmethyl)-carbamoyl]-2-(3-chloro-phenyl)-ethyl]-amide], the IC50 falls from 163 nM to 40.1 nM (4.1-fold).

Compared with `Cc1nc(N)ccc1CNC(=O)[C@H](Cc1cccc2ccccc12)NC(=O)[C@H]1CCCN1C` [Example 9, (R)-1-Methyl-pyrrolidine-2-carboxylic acid [(S)-1-[(6-amino-2-methyl-pyridin-3-ylmethyl)-carbamoyl]-2-naphthalen-1-yl-ethyl]-amide], `CCC(C)[C@H](NC)C(=O)N[C@@H](CC1CCCCC1)C(=O)NCc1ccc(N)nc1` (stereo partly drawn) [Example 339, (S)-3-Methyl-2-methylamino-pentanoic acid {(S)-1-[(6-amino-pyridin-3-ylmethyl)-carbamoyl]-2-cyclohexyl-ethyl}-amide] is 6.3-fold higher in IC50: 6.3 nM for the first, 39.8 nM for the second. The first is the more potent here.

Going from `CN1CCCC1C(=O)NC(Cc1c(F)c(F)c(F)c(F)c1F)C(=O)NCc1ccc(N)nc1` [Example 97, (R)-1-Methyl-pyrrolidine-2-carboxylic acid {(S)-1-[(6-amino-pyridin-3-ylmethyl)-carbamoyl]-2-pentafluorophenyl-ethyl}-amide] to `CCN(C)C(C)C(=O)NC(Cc1cccc(Cl)c1)C(=O)NCc1ccc(N)nc1` [Example 408, (S)—N-[(S)-1-[6-Amino-pyridin-3-ylmethyl)-carbamoyl]-2-(3-chloro-phenyl)-ethyl]-2-(ethyl-methyl-amino)-propionamide], the IC50 falls from 45.2 nM to 4.8 nM (9.4-fold).

First: CCC(C)[C@H](N)C(=O)N[C@@H](CC1CCCC2CCCCC21)C(=O)NCc1ccc(N)nc1 (stereo partly drawn) [Example 12, (S)-2-Amino-3-methyl-pentanoic acid [(S)-1-[(6-amino-pyridin-3-ylmethyl)-carbamoyl]-2-(decahydro-naphthalen-1-yl)-ethyl]-amide]
Second: COc1cccc(C[C@H](NC(=O)[C@H]2CCCN2C)C(=O)NCc2ccc(N)nc2)c1 [Example 107, (R)-1-Methyl-pyrrolidine-2-carboxylic acid [(S)-1-[(6-amino-pyridin-3-ylmethyl)-carbamoyl]-2-(3-methoxy-phenyl)-ethyl]-amide]
The IC50 of the first is 11-fold lower: 6.3 nM for the first, 71.2 nM for the second. The first is the more potent here.

`COC(=O)CN1CCC[C@@H]1C(=O)N[C@@H](Cc1ccc(F)c(F)c1)C(=O)NCc1ccc(N)nc1` [Example 134, {(R)-2-[(S)-1-[(6-Amino-pyridin-3-ylmethyl)-carbamoyl]-2-(3,4-difluoro-phenyl)-ethylcarbamoyl]-pyrrolidin-1-yl}-acetic acid methyl ester] and `CN[C@@H](C)C(=O)N[C@@H](Cc1ccc(F)c(F)c1)C(=O)NCc1ccc(N)nc1` [Example 85, (S)—N-[(S)-1-[(6-Amino-pyridin-3-ylmethyl)-carbamoyl]-2-(3,4-difluoro-phenyl)-ethyl]-2-methylamino-propionamide] are within 1.5-fold of each other in IC50: 13.5 nM for the first, 13.9 nM for the second.

Compared with `Cc1nc(N)ccc1CNC(=O)[C@H](Cc1cccc2ccccc12)NC(=O)c1cc2cc(F)ccc2[nH]1` [Example 305, 5-Fluoro-1H-indole-2-carboxylic acid {(S)-1-[(6-amino-2-methyl-pyridin-3-ylmethyl)-carbamoyl]-2-naphthalen-1-yl-ethyl}-amide], `CCC(C)[C@@H](N)C(=O)N[C@@H](Cc1ccc(F)cc1)C(=O)NCc1ccc(N)nc1` (stereo partly drawn) [Example 33, (R)-2-Amino-3-methyl-pentanoic acid [(S)-1-[(6-amino-pyridin-3-ylmethyl)-carbamoyl]-2-(4-fluoro-phenyl)-ethyl]-amide] is 22-fold lower in IC50: 119 nM for the first, 5.3 nM for the second.

Going from `Cc1cccc(C[C@H](NC(=O)[C@H]2CCCN2C)C(=O)NCc2ccc(N)nc2)c1` [Example 105, (R)-1-Methyl-pyrrolidine-2-carboxylic acid {(S)-1-[(6-amino-pyridin-3-ylmethyl)-carbamoyl]-2-m-tolyl-ethyl}-amide] to `CC(C)N(C)[C@@H](C)C(=O)N[C@@H](Cc1ccc(Cl)c(Cl)c1)C(=O)NCc1ccc(N)nc1` [Example 401, (S)—N-[(S)-1-[(6-Amino-pyridin-3-ylmethyl)-carbamoyl]-2-(3,4-dichloro-phenyl)-ethyl]-2-(isopropyl-methyl-amino)-propionamide], the IC50 falls from 3.8 nM to 0.16 nM (24-fold). The second is the more potent here.
